In patent publication US20250302773A1, “CO[…] AND N-ACYLETH[…] USES THEREOF” (CLEARMIND MEDICINE INC., priority 2022, published 2025):

Experiments:
[1] = Body weight in the IA2BC study; type: in vivo, mice; settings: group 4F (MEAI mid dose, 60 mg/kg), only during Day 40 of cycle 1; *p<0.05
Experimental: Body weight was recorded upon arrival, before study initiation, three times a week thereafter and at termination.
Body weight (BW) was monitored every other day in all animals of all groups.

C57BL/6 mice [2] = test: Intermittent access to 20% Alcohol in two-bottle choice (IA2BC) model: alcohol consumption; type: in vivo
Experimental: The principle of the study is based on Intermittent access to 20% Alcohol in two-bottle choice (IA2BC) model in mice. The mice were provided during the whole Study with two bottles: one bottle of water, and another bottle of 20% ethanol solution, which were removed and replaced after 24 hours with another buttle of water, for additional 24 hours. In total, the mice were subjected to 20% ethanol 24 hours, three times a week, for seven-eight weeks (21-22 alcohol consumption days).
The alcohol consumption was measured after each 24 of alcohol exposure (by weighing the alcohol buttle before and after). Following four weeks of intermittent access to 20% alcohol the mice were allocated to groups according to their alcohol consumption, to achieve balanced groups. To examine the effect of treatment in reducing alcohol consumption, mice were treated with the Test Item/s or Vehicle daily during weeks 6-7/8. […]
Animal alcohol and water consumption was recorded for each cage and was done for a 24±2 hours period starting at Day 1, three times a week thereafter until the end of the Study.
Intermittent access to 20% Alcohol in two-bottle choice (IA2BC) model in mice. The mice were subjected to 20% ethanol 24 hours, three times a week, for five weeks (15 alcohol consumption days), and the alcohol consumption was measured by weight. […]

C57BL/6 mice [3] = test: Alcohol preference (alcohol / total fluids) in the IA2BC study; type: in vivo
Experimental: The mean alcohol preference, which was defined as the ratio between alcohol weight (g/kg/24 h) divided by the total weight of water and alcohol consumed by the animals (g/kg/24 h) was evaluated.

C57BL/6 mice [4] = test: Mortality and gross pathology in the IA2BC study; type: in vivo
Experimental: Morbidity and mortality checks were performed daily. Animals that were sacrificed during the study were considered for the interpretation of study results as animals that died during the study. In case of mortality before the study's scheduled termination, gross pathology evaluation was performed as close as possible to the time of death. The time of death was recorded as precisely as possible.
Observations documented any irregularities, such as changes in local injection site, skin, fur, eyes, mucous membranes, respiratory, occurrence of secretions and excretions (e.g. diarrhea) and autonomic activity (e.g. lacrimation, salivation, piloerection, pupil size, unusual respiratory pattern). Changes in gait, posture, and response to handling, as the presence of bizarre behavior, tremors, convulsions, sleep, and coma were also included. All observed abnormalities, toxic signs, moribund condition, and pre-terminal deaths were recorded.
The animals were evaluated for macroscopic findings during gross pathology.

C57BL/6 mice [5] = test: Food consumption in the IA2BC study; type: in vivo; settings: cycle 2, Group 7F, MEAI/PEA 0/25 mg/kg
Experimental: Animal food consumption was performed twice before first dosing (during alcohol addition, and without alcohol addition), during dosing period at each alcohol addition (six times in total) and before termination (without alcohol addition).
The Food consumption was recorded in each cage for a […] period. Determinations of food consumption (calculated value) were based on a provided diet placed in hoppers and the remaining unused diet weighed.
Food consumption was monitored per each mouse in each individual cage for 24 h during Alcohol addition time, by measuring the weight of food before and after 24 hours. The consumption of food was measured during all MEAI treatment days, in both cycles. The mean value for each group during each consumption day was calculated as fold change from baseline (i.e. food consumption measured before MEAI treatment), per each animal. The fold change values of each MEAI/PEA treated group was compared to the vehicle groups (1F/6F/7F) and statistical analysis was performed.

Row | Compound | body weight compared to control group [1] | reducing alcohol consumption of the treated animals (C57BL/6 mice [2]; MEAI 20-100 mg/kg PO daily, weeks 6-7/8, treated vs control) | alcohol consumption during treatment compared to consumption before treatment (C57BL/6 mice [2]; cycle 1, MEAI at a dose of 40 mg/kg and at higher doses PO, mean of six alcohol days, ** p<0.01, *** p<0.001) | reduction of alcohol preference compared to control, significance (C57BL/6 mice [3]; cycle 1, 100 mg/kg MEAI) | mean alcohol preference compared to control groups (C57BL/6 mice [3]; cycle 1, MEAI 20-100 mg/kg) | mortality (C57BL/6 mice [4]; high doses treated groups, after prolonged alcohol consumption) | gross pathology findings in liver, kidneys, heart and spleen (bright color and/or enlarged) (C57BL/6 mice [4]; observed in all groups including vehicle treated) | reduction of food consumption compared to own baseline (C57BL/6 mice [5])
1 | COc1ccc2c(c1)CC(N)C2 (centres unmarked) [MEAI, 5-methoxy-2-aminoindan] | significantly lower | significant dose dependent effect | significantly reduced | statistically significant | reduced in a dose dependent manner | four | most likely related to the alcohol consumption and not to the MEAI treatment | –
2 | CCCCCCCCCCCCCCCC(=O)NCCO [PEA, N-(2-hydroxyethyl) hexadecanamide] | – | – | – | – | – | – | – | 22%
